Measured values taken from publication PMC11468294, “Peptide Amphiphiles as Biodegradable Adjuvants for Efficient Retroviral Gene Delivery” (Advanced Healthcare Materials, 2023).
Entries after “also recorded” stand apart in the source; their conditions may differ. Where a SMILES comes first, the peptide text is derived from it. The star is where a group is joined. X2 = CC/C=C\C/C=C\C/C=C\C/C=C\C/C=C\CCCC(=O)*; X1 = CC/C=C\C/C=C\C/C=C\CCCCCCCC(=O)*; Fmoc = O=C(OCC1c2ccccc2-c2ccccc21)*; Palmitoyl = CCCCCCCCCCCCCCCC(=O)*; Lauroyl = CCCCCCCCCCCC(=O)*

What was measured:
HeLa cells = assay type: in vitro ADME; conditions: for degradability by cells (in words): HeLa cells, 2 µg peptide added to 20,000 cells, d0 (30 min) vs d3, degradable if number and size of aggregates are reduced after 3 days
Experimental: Confocal laser scanning microscopy and degradation study with PA library and HeLa cells: Confocal laser scanning microscopy studies were performed for the visualization of the cell‐PA interaction. HeLa cells were seeded one day prior to conducting the assay (20000/well) in an 8‐well IBIDI slide. 2 µL of the preformed peptide fibrils (1 mg mL^−1) were diluted with 2 µL Proteostat (Enzo Life Science, 1 µL stock in 99 µL PBS) and incubated for 10 min and further diluted with medium to receive a final peptide concentration of 10 µg mL^−1. The nucleus of the HeLa cells was stained with Hoechst 33 342 (NucBlue, Thermo Fisher Scientific). The peptide solution mixture was transferred to the HeLa cells and incubated for 30 min at 37°C before washing three times with PBS. The interaction of fibril clusters with cells was monitored after 30 min incubation time on a Stellaris 8 confocal laser scanning microscope (Leica) equipped with a 20x air objective and laser excitation wavelengths of 405 nm (Hoechst), and 561 nm (Proteostat). For the evaluation of aggregate degradation, the samples were further incubated at 37°C for 3 d and analyzed without any additional washing step. The evaluation of aggregate size and number was conducted by analyzing Proteostat stained aggregates via the 3D objects counter function of ImageJ 1.53f51 for 3 individual measurements (area 1008 µm × 1008 µm). […] The number of aggregates were determined by counting aggregates larger than the threshold 10 µm^2 in an area of 1008 µm × 1008 µm and repeated in three technical triplicates.
(§1) 7 Effects of PA modifications on properties and activity
(§2) To investigate the effects of modification in the PA sequence, we created various peptide amphiphiles derived from PA1 by varying the (I) hydrophobic moiety, (II) the linkage chemistry and (III) the peptide sequence (Figure S12, SI chapter 7.1 – 7.3). The color code for sequence representation is yellow for the hydrophobic moiety, blue for cationic amino acids, red for non-polar amino acids, purple for polar uncharged amino acids, and green for anionic amino acids. To be concise, only the summarized information will be discussed, all original data for the peptides are summarized in the (Figure S26 - […]
(§3) Figure S12 Summarized overview of peptide amphiphile library in which systematic variations the original sequence […]
(§4) chemistry and (III) the peptide sequence on infectivity enhancement and degradability (see SI chapter 7.1 – 7.3).
(§5) In the following section a compound is considered infectivity enhancing if n-fold infectivity at 1.3 µM is larger than 2. A compound is considered to form µm-sized aggregates if visible particles were observed in widefield microscopy (brightfield or ThT-staining filter, objective 10x) or confocal […]
(§6) than 1000 kcps in Zeta-Potential measurements.
(§7) For the degradability only the PAs which could be stained with Proteostat (Figure S26) and were visible in microscopy (Figure S15, Figure S18, Figure S21, and Figure S22) were studied in detail. To determine […]
whether a PA is degraded or not, Proteostat stained PAs which are added to Hela cells (2 µg peptide added to 20.000 cells) and studied via confocal laser scanning microscopy. Microscopy is conducted at day 0 (d0, after 30 min of incubation) and at day 3 (d3, after 72 h of incubation). The number of aggregates >10 µm2 is counted via 3D object counter in ImageJ in an area of 1008 µm × 1008 µm.
A PA is considered as degradable if the number and the size of aggregates are reduced after 3 days.
The efficiency is determined by the percentual degradation (aggregate number at d3 / aggregate number at d0). Three technical replicates were evaluated for each sample. A large deviation in number and size of aggregates represents a nonhomogeneous distribution and polymorphism of aggregates.

[1] = Microscopic aggregation (fluorescence / confocal microscopy, derived count rate); assay type: physicochemical; conditions: fibrils preformed at 1 mg mL-1 in PBS; ThT or Proteostat stain, widefield or confocal microscopy; derived count rate > 1000 kcps as criterion
Experimental: (§8) Transmission electron microscopy (TEM) measurements, Thioflavin (ThT), zeta‐potential measurements for fibril characterization, ATR‐IR spectra acquisition and the calculation of β−sheet were prepared and conducted analogous to a previous report.^[ [20], [86] ^] […] Fibrils were defined as distinct, if no visible structures could be identified in fluorescence and brightfield microscopy. […] The derived count rate of the zeta‐potential measurement was used as information on the light scattering intensity and turbidity of the sample as a further indicator for microscopic aggregation.^[ [90] ^]
Fluorescence microscopy: 1 µL Fibrils (1 mg mL^−1) were stained with 9 µL, 50 µM ThT. 10 µL of the stained fibrils (0.1 mg mL^−1) were placed on a microscopy glass. Fluorescence microscopy measurements were performed on a Leica DMi8 microscope with 10x air objective and equipped with a Leica MC170 HD camera with a filter setting λem = 527/30 nm upon excitation at λex = 480/40 nm) and processed with the Leica LASX software.
as §1, §2, §3, §4, §5, §6, §7
whether a PA is degraded or not, Proteostat stained PAs which are added to Hela cells (2 µg peptide added to 20.000 cells) and studied via confocal laser scanning microscopy. […]
In the following, we will distinguish between three aggregation types for fibrillar structures: Fibrils which were not aggregating (below resolution limit of the microscope, approx. 650 nm), moderately aggregating (< 50 µm2) and aggregating to large particles (> 50 µm 2).
7.1 Effects of hydrophobic moiety exchange on properties and activity
To investigate the effects of varying hydrophobic moieties on assembly, aggregation and activity , we

[2] = test system: HIV-1 infection of TZM-bl cells; assay: HIV-1 infection assay (β-galactosidase luminescence reporter); assay type: cell-based
Experimental: HIV‐1 Infection Assay: The effect of peptide fibrils on HIV‐1 infection was studied via a luminescence assay for β‐galactosidase, which was reported by TZM‐bl cells upon infection. 10000 TZM‐bl cells were seeded in 180 µl supplemented DMEM one day prior infection. The cells were inoculated with 20 µl PNF solution 1:1 (v/v) mixed with virus (1:500 dilution) after an incubation time of 10 min. The HIV‐1 infection assay was conducted in three technical replicates and repeated in three independent experiments unless stated otherwise. The assay was conducted as described before.^[ [20] ^]

[3] = TEM morphology of peptide assemblies; assay type: physicochemical; conditions: diluted from DMSO stock (10 mg mL-1) to 1 mg mL-1 in PBS, incubated 1 d at rt
Experimental: as §8
TEM: 5 µL of fibrils (1 mg mL^−1) were placed on 300 mesh, Formvar layered copper grids. After 10 min incubation time, the grids were staining with 4% uranyl acetate solution for 2.5 min. After
three washing steps with dd H2O excess solvent was removed by filter paper. Measurements
were performed on a Jeol 1400 electron microscope with 120 kV acceleration voltage.

[4] = Zeta-potential measurement; assay type: physicochemical; conditions: 1 mg mL-1 in PBS, diluted in 1 mM KCl
Experimental: Zeta‐potential: 60 µL of the peptides (1 mg mL^−1) were diluted in 600 µL, 1 mM KCl solution and placed in a disposable folded capillary cuvette. All zeta‐potential measurements (Zetasizer, Malvern Instruments) were conducted in triplicates for each sample.

[5] = infectivity enhancing if n-fold at 1.3 µM larger than 2

| Compound | degradability by cells (in words) (HeLa cells) | formation of µm-sized aggregates (in words) [1] | infectivity enhancement of HIV-1 (in words) [2, 5] | morphology of peptide assemblies / fibril formation (TEM) [3] | other results |
| --- | --- | --- | --- | --- | --- |
| CCCCCCCCCCCC(=O)N[C@H](C(=O)N[C@H](C(=O)N[C@H](C(=O)N[C@@H](C)C(=O)N[C@@H](C)C(=O)N[C@@H](C)C(=O)N[C@@H](CCCCN)C(=O)N[C@@H](CCCCN)C(=O)N[C@@H](CCCCN)C(N)=O)C(C)C)C(C)C)C(C)C [C12] (Lauroyl-VVVAAAKKK-NH2) | partially degraded | large aggregate formation | efficient infectivity enhancement |  |  |
| CC(C)[C@H](NC(=O)OCC1c2ccccc2-c2ccccc21)C(=O)N[C@H](C(=O)N[C@H](C(=O)N[C@@H](C)C(=O)N[C@@H](C)C(=O)N[C@@H](C)C(=O)N[C@@H](CCCCN)C(=O)N[C@@H](CCCCN)C(=O)N[C@@H](CCCCN)C(N)=O)C(C)C)C(C)C (Fmoc-VVVAAAKKK-NH2) | cannot be degraded by cells | very large | active | forming fibrils |  |
| CC/C=C\C/C=C\C/C=C\CCCCCCCC(=O)N[C@H](C(=O)N[C@H](C(=O)N[C@H](C(=O)N[C@@H](C)C(=O)N[C@@H](C)C(=O)N[C@@H](C)C(=O)N[C@@H](CCCCN)C(=O)N[C@@H](CCCCN)C(=O)N[C@@H](CCCCN)C(N)=O)C(C)C)C(C)C)C(C)C (X1-VVVAAAKKK-NH2) |  | do not aggregate | Inactive | cannot self‐assemble into fibrils | zeta-potential (in words) [4]: neutral zeta-potential; morphology of peptide assemblies / fibril formation (TEM) ([3]; listed as alpha linolenic acid): neither forming fibrils, nor it is aggregating or active; infectivity enhancement of HIV-1 (in words) ([2]; infectivity enhancing if n-fold at 1.3 µM larger than 2, listed as alpha linolenic acid): not able to maintain activity |
| CC/C=C\C/C=C\C/C=C\C/C=C\C/C=C\CCCC(=O)N[C@H](C(=O)N[C@H](C(=O)N[C@H](C(=O)N[C@@H](C)C(=O)N[C@@H](C)C(=O)N[C@@H](C)C(=O)N[C@@H](CCCCN)C(=O)N[C@@H](CCCCN)C(=O)N[C@@H](CCCCN)C(N)=O)C(C)C)C(C)C)C(C)C (X2-VVVAAAKKK-NH2) | degradable PA |  |  | structures composed of fibrillar structures | average size of aggregates (HeLa cells; Proteostat-stained PA with HeLa cells, confocal aggregate analysis): 6-7 µm2 |
| CCCCCCCCCCCCCCCC(=O)NCC(=O)NCC(=O)NCC(=O)N[C@@H](CO)C(=O)N[C@@H](CO)C(=O)N[C@@H](CCCCN)C(=O)N[C@@H](CCCCN)C(=O)N[C@@H](CCCCN)C(N)=O (Palmitoyl-GGGSSKKK-NH2) |  | not forming µm-sized aggregates and forming too few/less aggregates, respectively; also recorded: cannot form µm‐sized aggregates | Inactive |  |  |
| CCCCCCCCCCCCCCCC(=O)N[C@@H](C)C(=O)NCC(=O)N[C@@H](C)C(=O)NCC(=O)N[C@@H](CCCNC(=N)N)C(=O)N[C@@H](CCCNC(=N)N)C(=O)N[C@@H](CCCNC(=N)N)C(N)=O [C16-AGAGRRR-NH2] (Palmitoyl-AGAGRRR-NH2) |  | not forming µm-sized aggregates and forming too few/less aggregates, respectively; also recorded: cannot form µm‐sized aggregates | Inactive |  |  |
| CCCCCCCCCCCCCCCC(=O)NCC(=O)N[C@@H](CCCCN)C(=O)N[C@H](C(=O)NCC(=O)N[C@@H](CO)C(=O)N[C@@H](CCCCN)C(N)=O)C(C)C [C16-GKVGSK-NH2] (Palmitoyl-GKVGSK-NH2) |  | cannot form µm‐sized aggregates | Inactive |  |  |
| CCCCCCCCCCCCCCCC(=O)N[C@@H](CCCCN)C(=O)NCC(=O)N[C@H](C(=O)N1CCC[C@H]1C(=O)NCC(=O)N[C@H](C(=O)NCC(=O)N[C@@H](CCCCN)C(N)=O)C(C)C)C(C)C (Palmitoyl-KGVPGVGK-NH2) |  | not forming µm-sized aggregates and forming too few/less aggregates, respectively | Inactive | not forming fibrils; also recorded: cannot self‐assemble into fibrils |  |
| C16-disulfide-CVVVAAAKKK-NH2 [PA1 variant with disulfide linker] |  | not forming visible aggregates |  |  | reduction of infectivity enhancement relative to the original amide-linked PA ([2]; n-fold at 1.3 µM): approx. 60% |
| CCCCCCCCCCCCCCCC(=O)N[C@@H](Cc1c[nH]c2ccccc12)C(=O)N[C@@H](CCC(=O)O)C(=O)N[C@@H](C)C(=O)N[C@@H](CC(C)C)C(=O)N[C@@H](CCCCN)C(=O)N[C@@H](CCCCN)C(N)=O [C16-WEALKK-NH2] (Palmitoyl-WEALKK-NH2) |  | not forming µm-sized aggregates and forming too few/less aggregates, respectively | Inactive | not forming fibrils; also recorded: cannot self‐assemble into fibrils |  |
